# Measured values: patent publication US6413733B1, “Stabilized reagent and method for determining creatine kinase” (Roche Diagnostics GmbH, priority 1997, dated 2002)
# Columns and labels:
# Format in all cases: biochemical
# creatine kinase (CK) [1] = experiment: CK functional stability of the reagent with Na2SO3 (example 1); conditions: for CK functional stability, 35° C. compared to 2 to 8° C.: 14 days storage
# Description: (§1) For the determination 250 μl R1 is mixed with 10 μl sample, incubated for 5 minutes, the reaction is started with 50 μl R2 and the CK activity is measured after incubating for a further 1 minute. The CK or G6P-DH enzyme activity was determined after storage at 2 to 8° C. or 35° C. for various periods (table 1-3,FIGS. 1-3).
# G6P-DH [2] = experiment: Long-term stability G6P-DH, 10 mmol/l DTT compared to 1 mmol/l Na2SO3; conditions: 1 mmol/l sulfite, example 1
# Description: as §1
# The reagent R was combined with the sample to be measured as described in example 1 and the corresponding enzyme activities were determined (table 5,FIG. 5).
# creatine kinase (CK) [3] = experiment: Regeneration of the CK in R1 by adding sulfite in R2 (example 4); conditions: 10 mmol/l sulfite in R2
# Description: as §1
# The mixing of R1, R2 and the respective sample and the subsequent determination were carried out according to example 1.
# creatine kinase (CK) [4] = experiment: Influence of the amount of sulfite on the CK activity (example 2)
# Description: as §1
# The reagent composition and the test procedure are essentially analogous to example 1. Only the amount of sodium sulfite (0 to 20 mmol/l) added to reagent 1 was varied.
# G6P-DH [5] = experiment: G6P-DH stability in the reagent with Na2SO3, 14 days storage (example 1); conditions: for G6P-DH stability, 35° C. compared to 2 to 8° C.: 14 days storage
# Description: as §1
# [6] = 1 mmol/l Na2SO3 in reagent 1, sample 1
# [7] = 1 mmol/l Na2SO3 in reagent 1, sample 2
# [8] = 2 mmol/l Na2SO3 in reagent 1, sample 1
# [9] = 2 mmol/l Na2SO3 in reagent 1, sample 2
# [10] = 3 mmol/l Na2SO3 in reagent 1, sample 1
# [11] = 3 mmol/l Na2SO3 in reagent 1, sample 2
# [12] = 4 mmol/l Na2SO3 in reagent 1, sample 1
# [13] = 4 mmol/l Na2SO3 in reagent 1, sample 2
structure (smiles),measurement,setting,value
"O=S([O-])[O-].[Na+].[Na+] [Na2SO3, sodium sulfite]","CK activity, 14 days storage at 2 to 8° C.",creatine kinase (CK) [1]; [6],278 U/l
same,"CK activity, 14 days storage at 35° C.",creatine kinase (CK) [1]; [6],267 U/l
same,"CK functional stability, 35° C. compared to 2 to 8° C.",creatine kinase (CK) [1]; [6],96.0%
same,"CK activity, 14 days storage at 2 to 8° C.",creatine kinase (CK) [1]; [7],540 U/l
same,"CK activity, 14 days storage at 35° C.",creatine kinase (CK) [1]; [7],512 U/l
same,"CK functional stability, 35° C. compared to 2 to 8° C.",creatine kinase (CK) [1]; [7],94.8%
same,"CK activity, 14 days storage at 2 to 8° C.",creatine kinase (CK) [1]; [8],274 U/l
same,"CK activity, 14 days storage at 35° C.",creatine kinase (CK) [1]; [8],265 U/l
same,"CK functional stability, 35° C. compared to 2 to 8° C.",creatine kinase (CK) [1]; [8],97.0%
same,"CK activity, 14 days storage at 2 to 8° C.",creatine kinase (CK) [1]; [9],530 U/l
same,"CK activity, 14 days storage at 35° C.",creatine kinase (CK) [1]; [9],510 U/l
same,"CK functional stability, 35° C. compared to 2 to 8° C.",creatine kinase (CK) [1]; [9],96.2%
same,"CK activity, 14 days storage at 2 to 8° C.",creatine kinase (CK) [1]; [10],271 U/l
same,"CK activity, 14 days storage at 35° C.",creatine kinase (CK) [1]; [10],267 U/l
same,"CK functional stability, 35° C. compared to 2 to 8° C.",creatine kinase (CK) [1]; [10],98.5%
same,"CK activity, 14 days storage at 2 to 8° C.",creatine kinase (CK) [1]; [11],523 U/l
same,"CK activity, 14 days storage at 35° C.",creatine kinase (CK) [1]; [11],503 U/l
same,"CK functional stability, 35° C. compared to 2 to 8° C.",creatine kinase (CK) [1]; [11],96.2%
same,"CK activity, 14 days storage at 2 to 8° C.",creatine kinase (CK) [1]; [12],260 U/l
same,"CK activity, 14 days storage at 35° C.",creatine kinase (CK) [1]; [12],272 U/l
same,"CK functional stability, 35° C. compared to 2 to 8° C.",creatine kinase (CK) [1]; [12],104.4%
same,"CK activity, 14 days storage at 2 to 8° C.",creatine kinase (CK) [1]; [13],505 U/l
same,"CK activity, 14 days storage at 35° C.",creatine kinase (CK) [1]; [13],521 U/l
same,"CK functional stability, 35° C. compared to 2 to 8° C.",creatine kinase (CK) [1]; [13],103.1%
same,G6P-DH activity,G6P-DH [2]; 0 days at 2 to 8° C.,3.68 U/ml
same,G6P-DH activity relative to day 0,G6P-DH [2]; 0 days at 2 to 8° C.,100.0%
same,G6P-DH activity,G6P-DH [2]; 55 days at 2 to 8° C.,3.65 U/ml
same,G6P-DH activity relative to day 0,G6P-DH [2]; 55 days at 2 to 8° C.,99.2%
same,G6P-DH activity,G6P-DH [2]; 85 days at 2 to 8° C.,3.77 U/ml
same,G6P-DH activity relative to day 0,G6P-DH [2]; 85 days at 2 to 8° C.,102.3%
same,G6P-DH activity,G6P-DH [2]; 114 days at 2 to 8° C.,3.57 U/ml
same,G6P-DH activity relative to day 0,G6P-DH [2]; 114 days at 2 to 8° C.,96.9%
same,G6P-DH activity,G6P-DH [2]; 136 days at 2 to 8° C.,3.35 U/ml
same,G6P-DH activity relative to day 0,G6P-DH [2]; 136 days at 2 to 8° C.,91.0%
same,G6P-DH activity,G6P-DH [2]; 192 days at 2 to 8° C.,3.15 U/ml
same,G6P-DH activity relative to day 0,G6P-DH [2]; 192 days at 2 to 8° C.,85.5%
same,G6P-DH activity,G6P-DH [2]; 220 days at 2 to 8° C.,3.12 U/ml
same,G6P-DH activity relative to day 0,G6P-DH [2]; 220 days at 2 to 8° C.,84.7%
same,G6P-DH activity,G6P-DH [2]; 308 days at 2 to 8° C.,2.98 U/ml
same,G6P-DH activity relative to day 0,G6P-DH [2]; 308 days at 2 to 8° C.,80.9%
same,G6P-DH activity,G6P-DH [2]; 345 days at 2 to 8° C.,2.65 U/ml
same,G6P-DH activity relative to day 0,G6P-DH [2]; 345 days at 2 to 8° C.,72.0%
same,G6P-DH activity,G6P-DH [2]; 451 days at 2 to 8° C.,2.12 U/ml
same,G6P-DH activity relative to day 0,G6P-DH [2]; 451 days at 2 to 8° C.,57.6%
same,"CK activity, Sample 1",creatine kinase (CK) [3]; R1 stress 14 days 2-8° C.,238 U/l
same,"CK activity, Sample 2",creatine kinase (CK) [3]; R1 stress 14 days 2-8° C.,509 U/l
same,recovery sample 1 (vs. fresh reagent),creatine kinase (CK) [3]; R1 stress 14 days 2-8° C.,100.8%
same,recovery sample 2 (vs. fresh reagent),creatine kinase (CK) [3]; R1 stress 14 days 2-8° C.,99.5%
same,"CK activity, Sample 1",creatine kinase (CK) [3]; R1 stress 14 days 35° C.,227 U/l
same,"CK activity, Sample 2",creatine kinase (CK) [3]; R1 stress 14 days 35° C.,486 U/l
same,recovery sample 1 (vs. fresh reagent),creatine kinase (CK) [3]; R1 stress 14 days 35° C.,96.2%
same,recovery sample 2 (vs. fresh reagent),creatine kinase (CK) [3]; R1 stress 14 days 35° C.,94.7%
same,"CK activity, Sample 1",creatine kinase (CK) [4]; sulfite 1 mmol/l test,242 U/l
same,"CK activity, Sample 2",creatine kinase (CK) [4]; sulfite 1 mmol/l test,530 U/l
same,"CK function relative to 0 mmol/l sulfite, Sample 1",creatine kinase (CK) [4]; sulfite 1 mmol/l test,102.9%
same,"CK function relative to 0 mmol/l sulfite, Sample 2",creatine kinase (CK) [4]; sulfite 1 mmol/l test,100.2%
same,"CK activity, Sample 1",creatine kinase (CK) [4]; sulfite 2 mmol/l test,239 U/l
same,"CK activity, Sample 2",creatine kinase (CK) [4]; sulfite 2 mmol/l test,520 U/l
same,"CK function relative to 0 mmol/l sulfite, Sample 1",creatine kinase (CK) [4]; sulfite 2 mmol/l test,101.4%
same,"CK function relative to 0 mmol/l sulfite, Sample 2",creatine kinase (CK) [4]; sulfite 2 mmol/l test,98.4%
same,"CK activity, Sample 1",creatine kinase (CK) [4]; sulfite 3 mmol/l test,236 U/l
same,"CK activity, Sample 2",creatine kinase (CK) [4]; sulfite 3 mmol/l test,514 U/l
same,"CK function relative to 0 mmol/l sulfite, Sample 1",creatine kinase (CK) [4]; sulfite 3 mmol/l test,100.3%
same,"CK function relative to 0 mmol/l sulfite, Sample 2",creatine kinase (CK) [4]; sulfite 3 mmol/l test,97.2%
same,"CK activity, Sample 1",creatine kinase (CK) [4]; sulfite 4 mmol/l test,227 U/l
same,"CK activity, Sample 2",creatine kinase (CK) [4]; sulfite 4 mmol/l test,496 U/l
same,"CK function relative to 0 mmol/l sulfite, Sample 1",creatine kinase (CK) [4]; sulfite 4 mmol/l test,96.4%
same,"CK function relative to 0 mmol/l sulfite, Sample 2",creatine kinase (CK) [4]; sulfite 4 mmol/l test,93.8%
same,"CK activity, Sample 1",creatine kinase (CK) [4]; sulfite 5 mmol/l test,215 U/l
same,"CK activity, Sample 2",creatine kinase (CK) [4]; sulfite 5 mmol/l test,504 U/l
same,"CK function relative to 0 mmol/l sulfite, Sample 1",creatine kinase (CK) [4]; sulfite 5 mmol/l test,91.3%
same,"CK function relative to 0 mmol/l sulfite, Sample 2",creatine kinase (CK) [4]; sulfite 5 mmol/l test,95.3%
same,"CK activity, Sample 1",creatine kinase (CK) [4]; sulfite 10 mmol/l test,196 U/l
same,"CK activity, Sample 2",creatine kinase (CK) [4]; sulfite 10 mmol/l test,464 U/l
same,"CK function relative to 0 mmol/l sulfite, Sample 1",creatine kinase (CK) [4]; sulfite 10 mmol/l test,83.2%
same,"CK function relative to 0 mmol/l sulfite, Sample 2",creatine kinase (CK) [4]; sulfite 10 mmol/l test,87.7%
same,"CK activity, Sample 1",creatine kinase (CK) [4]; sulfite 20 mmol/l test,182 U/l
same,"CK activity, Sample 2",creatine kinase (CK) [4]; sulfite 20 mmol/l test,441 U/l
same,"CK function relative to 0 mmol/l sulfite, Sample 1",creatine kinase (CK) [4]; sulfite 20 mmol/l test,77.3%
same,"CK function relative to 0 mmol/l sulfite, Sample 2",creatine kinase (CK) [4]; sulfite 20 mmol/l test,83.3%
same,"G6P-DH activity, 14 days storage at 2 to 8° C.",G6P-DH [5]; 1 mmol/l Na2SO3 in reagent 1,3.95 U/l
same,"G6P-DH activity, 14 days storage at 35° C.",G6P-DH [5]; 1 mmol/l Na2SO3 in reagent 1,1.50 U/l
same,"G6P-DH stability, 35° C. compared to 2 to 8° C.",G6P-DH [5]; 1 mmol/l Na2SO3 in reagent 1,38.1%
same,"G6P-DH activity, 14 days storage at 2 to 8° C.",G6P-DH [5]; 2 mmol/l Na2SO3 in reagent 1,3.92 U/l
same,"G6P-DH activity, 14 days storage at 35° C.",G6P-DH [5]; 2 mmol/l Na2SO3 in reagent 1,1.57 U/l
same,"G6P-DH stability, 35° C. compared to 2 to 8° C.",G6P-DH [5]; 2 mmol/l Na2SO3 in reagent 1,39.9%
same,"G6P-DH activity, 14 days storage at 2 to 8° C.",G6P-DH [5]; 3 mmol/l Na2SO3 in reagent 1,3.98 U/l
same,"G6P-DH activity, 14 days storage at 35° C.",G6P-DH [5]; 3 mmol/l Na2SO3 in reagent 1,1.69 U/l
same,"G6P-DH stability, 35° C. compared to 2 to 8° C.",G6P-DH [5]; 3 mmol/l Na2SO3 in reagent 1,42.5%
same,"G6P-DH activity, 14 days storage at 2 to 8° C.",G6P-DH [5]; 4 mmol/l Na2SO3 in reagent 1,4.06 U/l
same,"G6P-DH activity, 14 days storage at 35° C.",G6P-DH [5]; 4 mmol/l Na2SO3 in reagent 1,1.76 U/l
same,"G6P-DH stability, 35° C. compared to 2 to 8° C.",G6P-DH [5]; 4 mmol/l Na2SO3 in reagent 1,43.5%
